Measurements published in PubChem BioAssay (NCI).
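Growth conditions: 96-well plates. Treatment: test compound, 48 hours, 5 concentrations. Analysis: linear interpolation between bracketing concentrations; unreached endpoints set to highest concentration. GI50: concentration for 50% inhibition of growth. Definition used: TGI = concentration required for complete inhibition of growth.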

How the values were obtained:
Experiment in all cases: NCI-60 cell line screen, 48 h
NCI-H460 lung = test system: NCI-H460 lung
M14 melanoma = test system: M14 melanoma
M19-MEL melanoma = test system: M19-MEL melanoma
DLD-1 colon = test system: DLD-1 colon
NCI-H23 lung = test system: NCI-H23 lung
TK-10 renal = test system: TK-10 renal
KM20L2 colon = test system: KM20L2 colon
UACC-62 melanoma = test system: UACC-62 melanoma
EKVX NSCLC = test system: EKVX NSCLC

SMILES | TGI (NCI-H460 lung) [µM] | TGI (M14 melanoma) [µM] | TGI (M19-MEL melanoma) [µM] | TGI (DLD-1 colon) [µM] | TGI (NCI-H23 lung) [µM] | TGI (TK-10 renal) [µM] | TGI (KM20L2 colon) [µM] | TGI (UACC-62 melanoma) [µM] | GI50 (NCI-H460 lung) [µM] | GI50 (M14 melanoma) [µM] | GI50 (NCI-H23 lung) [µM] | GI50 (EKVX NSCLC) [µM] | TGI (EKVX NSCLC) [µM] | GI50 (TK-10 renal) [µM] | GI50 (UACC-62 melanoma) [µM] | GI50 (KM20L2 colon) [µM]
CC(C#N)c1cn(S(=O)(=O)c2ccccc2)c2ccccc12 (stereo not drawn) | > 100 | > 100 | > 100 | > 100 | > 100 | > 100 | > 100 | > 100 | – | – | – | – | – | – | – | –
CCCCCCN(CCCCCC)C(=N)c1ccnc2ccccc12 | 12.7 | 4.56 | – | – | 23.4 | 9.67 | – | 19.6 | 2.59 | 1.89 | 6.9 | 8.58 | 22.9 | 2.15 | 4.88 | –
C[C@H]1CCC/C=C/[C@@H]2C[C@H](O)C[C@H]2[C@H](O)[C@H](S(=O)c2ccc(O)cc2)CC(=O)O1 (stereo partly drawn) | 0.0703 | > 100 | – | – | 0.143 | 2.18 | – | > 100 | 0.0168 | 0.033 | 0.0273 | 0.0824 | > 36.9 | 0.0392 | 0.0349 | –
O=c1oc2ccc(Cl)cc2c(=O)n1-c1ccc(Cl)cc1F | 11 | 2.12 | – | – | 1.79 | 17.7 | – | 0.964 | 0.412 | 0.578 | 0.326 | 0.688 | 11.3 | 1.59 | 0.247 | –
CCOC(=O)[C@H](CSSc1ncnc2cc[nH]c12)NC(=O)[C@@H](C)c1ccc2cc(OC)ccc2c1 | > 100 | > 62.1 | – | – | > 100 | > 59.6 | – | > 100 | 3.04 | 0.13 | 2.18 | > 100 | > 100 | 0.265 | 0.425 | –
COc1ccc(C(=O)/C=C/c2cc3ccccc3[nH]c2=O)cc1 | > 43.4 | 47.2 | – | – | > 53 | > 100 | – | > 57.8 | 19.8 | 19.3 | 19.7 | 22.6 | > 94.3 | 20.9 | 24.4 | –
O=C(O)C(=O)Cc1ccc2c(c1)OCO2 | > 100 | > 100 | – | – | > 100 | > 100 | – | > 100 | – | – | – | – | > 100 | – | – | –
O=S(=O)(NCCNc1cc(-c2cn(-c3ccccc3)nc2-c2cccc(O)c2)ccn1)c1ccc(C(F)(F)F)cc1 | 10.1 | 7.17 | – | – | 15.4 | 18.7 | – | 3.98 | 3.23 | 2.12 | 2.97 | 2.25 | 11.8 | 2.81 | 1.78 | –
CS(=O)(=O)c1ccc(N/N=C/c2c(-c3ccc(S(C)(=O)=O)cc3)[nH]c3ccc(F)cc23)cc1 | > 50 | > 50 | – | – | > 50 | > 50 | – | > 50 | 1.77 | 2.16 | 2.84 | 40.2 | > 50 | 2.95 | 1.91 | –
CCN(Cc1ccc(F)cc1)c1ccc(CO)c(Cl)c1 | 11.7 | > 51.8 | – | – | 49.1 | 0.181 | – | 0.522 | 0.213 | 12.5 | 5.79 | 17.5 | 57.5 | 0.0366 | 0.0693 | –
CC(=O)[CH-]C(=O)c1ccccc1.CC(=O)[CH-]C(=O)c1ccccc1.O=C([O-])C[O-].O=C([O-])C[O-].[Ti+4] | > 100 | > 100 | > 100 | – | – | – | > 100 | > 100 | 28.4 | 34.7 | – | 96.7 | > 100 | – | > 100 | 43.8
COc1cccc(-c2nn(-c3ccccc3)cc2-c2ccnc(NCCNS(=O)(=O)c3ccc(C(F)(F)F)cc3)c2)c1 | > 100 | > 100 | – | – | > 100 | 9.88 | – | 35 | 3.47 | 3.8 | 3.23 | 3.16 | > 100 | 2.39 | 3.22 | –
Cc1cc(Cl)ccc1Nc1sc(C(=O)c2cc3cc(Cl)ccc3o2)c(N)c1C#N | > 64.3 | > 100 | – | – | 35.5 | > 73.1 | – | > 100 | – | – | – | – | > 100 | – | – | –
Cc1cc(NC(=O)c2ccc(NS(=O)(=O)CCO)cc2N2CCC3(CC2)CC3)nc(N2CCC(F)(F)CC2)n1 | 26.8 | 28.9 | – | – | 26.6 | 32.6 | – | 24.9 | 12.6 | 14.3 | 12.6 | 14.2 | 28.8 | 17.7 | 12.3 | –
COc1ccc(NC(=O)C(=O)C(CC2C(=O)NC(=S)NC2=O)C(=O)c2ccc3ccccc3c2)c([N+](=O)[O-])c1 (stereo not drawn) | > 100 | > 100 | – | – | > 100 | > 100 | – | > 100 | – | – | – | – | > 100 | – | – | –
Cc1cc(N(CCOS(C)(=O)=O)CCOS(C)(=O)=O)ccc1C=Nc1ccc(-c2csc(-c3ccccc3)n2)c(Cl)c1 | 7.01 | 43.1 | – | – | 29 | 46.1 | – | 20.6 | – | – | – | – | 29.1 | – | – | –
